In US20240067682A1, “PEPTIDE HAVING PLANT STEM CELL-INDUCING EFFECT AND PLANT PEST RESISTANCE-INDUCING EFFECT” (KYOTO PREFECTURAL PUBLIC UNIVERSITY CORPORATION, priority 2020, published 2024):

Key:
[1] = system: Pseudomonas syringae pv tomato DC3000; assay: Disease tolerance test with CAP6 peptide: DC3000 infection of sprayed Arabidopsis thaliana leaves; format: in vivo; details: 60 nM CAP6 peptide/0.02% Silwet L-77 sprayed 48 hours before infection; counted one day after infection
Method: Multiple types (76 types) of CAP proteins derived from Schlechtendalia chinensis, Caloptilia cecidophora, Borboryctis euryae, Caloptilia ryukyuensis, Rhus javanica, and Arabidopsis thaliana were aligned. From the consensus sequence (FIG. 9), FTQIVW (SEQ ID NO: 21) was determined (hereinafter referred to as “CAP6 peptide”). Then, Arabidopsis thaliana leaves were sprayed with 0.02% Silwet L-77 (Control), 60 nM CAP peptide/0.02% Silwet L-77, or 60 nM CAP6 peptide/0.02% Silwet L-77, and 48 hours later, infected with Pseudomonas syringae pv tomato DC3000 (DC3000) with an OD600 of 0.2×10^−3. One day later, DC3000 obtained from leaf fragments cut into 5-mm-diameter circles was diluted and spotted on LB medium containing kanamycin. 24 hours later, the number of bacteria per unit area was counted.

[2] = system: Arabidopsis thaliana expressing stem cell marker PLT1-GFP; assay: Stem cell induction in Arabidopsis thaliana roots expressing stem cell marker PLT1-GFP (confocal imaging); format: in vivo; details: 600 nM peptide aqueous solution, immersion 2 days
Method: Arabidopsis thaliana roots were treated with CAP peptide ([…]). Arabidopsis thaliana expressing stem cell marker PLT1-GFP was immersed in water or a 600 nM peptide aqueous solution for 2 days, and GFP fluorescent images and bright field images were obtained with a confocal laser microscope.

[3] = system: genes related to freezing tolerance and drought tolerance; assay: RNA-seq gene expression after 4 hours immersion in CAP peptide; format: in vivo, Arabidopsis thaliana; details: 600 nM, immersion 4 hours, vs water
Method: RNA of Arabidopsis thaliana immersed in water or a 600 nM CAP peptide solution for 4 hours was extracted, and gene expression was compared by RNA-seq analysis. Network analysis was then performed on genes with increased expression.

[4] = system: wild-type Arabidopsis thaliana seeds; assay: Osmotic and drought tolerance: growth of peptide-immersed seeds on excess mannitol- or sorbitol-containing medium; format: in vivo
Method: Next, wild-type Arabidopsis thaliana seeds were immersed in water (Control) or 600 nM CAP peptide for 5 minutes and then grown on an excess mannitol-containing medium. Further, wild-type Arabidopsis thaliana seeds were immersed in water (Control) or 600 nM CAP peptide overnight, and then grown on an excess sorbitol-containing medium.

[5] = system: genes related to disease resistance; assay: RNA-seq gene expression after 48 hours immersion in CAP peptide; format: in vivo, Arabidopsis thaliana; details: 600 nM, immersion 48 hours, vs water
Method: RNA of Arabidopsis thaliana immersed in water or a 600 nM CAP peptide solution for 48 hours was extracted, and gene expression was compared by RNA-seq analysis. Network analysis was then performed.

[6] = system: Pseudomonas syringae pv tomato DC3000; assay: DC3000 infection of Arabidopsis thaliana leaves sprayed with 600 nM CAP peptide, bacterial count; format: in vivo; details: leaves sprayed with 600 nM CAP peptide/0.02% Silwet L-77 24 hours before infection; counted 2 days after infection
Method: Next, Arabidopsis thaliana leaves were sprayed with water/0.02% Silwet L-77 (Control) or 600 nM CAP peptide/0.02% Silwet L-77, and 24 hours later, infected with Pseudomonas syringae pv tomato DC3000 (DC3000) with an OD600 of 0.2×10^−3. 2 days later, DC3000 obtained from leaf fragments cut into 4-mm-diameter circles was diluted and spotted on LB medium containing kanamycin. After incubation at 28° C. for 24 hours, the number of bacteria per unit area was counted.

[7] = system: Pseudomonas syringae DC3000; assay: DC3000 inoculation of Arabidopsis thaliana leaves applied with 60 nM CAP peptide; format: in vivo
Method: Arabidopsis thaliana leaves applied with water or 60 nM CAP peptide were inoculated with Pseudomonas syringae DC3000.

[8] = system: Pseudomonas syringae pv tomato DC3000; assay: DC3000 inoculation of Brassica rapa leaves sprayed with 60 nM CAP peptide; format: in vivo
Method: Brassica rapa leaves were sprayed with water or a 60 nM CAP peptide solution in advance, and one day later, inoculated with plant pathogen Pseudomonas syringae pv tomato DC3000 (DC3000). 2 days after infection, DC3000 obtained from leaf fragments cut into 4-mm-diameter circles was diluted, spotted on LB medium containing kanamycin, and incubated at 28° C. for 24 hours.

[9] = system: Arabidopsis thaliana seeds; assay: Germination of Arabidopsis thaliana seeds harvested 10 years before; format: in vivo; details: seeds immersed in 1, 10 or 100 μM CAP peptide for 2 hours; measured 2 weeks after sowing
Method: Arabidopsis thaliana seeds harvested 10 years before and not naturally germinated were immersed in 0, 1, 10, or 100 μM CAP peptide for 2 hours and then sown. The germination rate was measured 2 weeks later.

Rorippa aquatica = assay: Agrobacterium transformation of Rorippa aquatica in the presence of CAP peptide; format: in vivo; details: 1 μM CAP peptide mixed with Agrobacterium carrying GFP-TUB6 plasmid
Method: Agrobacterium introduced with a plasmid expressing GFP-TUB6 protein was mixed with CAP peptide to final concentrations of 50 nM, 1 μM, and 10 μM, and transformed into Rorippa aquatica.

[10] = system: Cherry tomato Sun Cherry seedlings; assay: Growth promotion of cherry tomato Sun Cherry seedlings; format: in vivo; details: 1 μM CAP peptide sprayed twice (Jul. 21 and July 28); t-test p<0.05
Method: Cherry tomato Sun Cherry seedlings were purchased, sprayed with 1 μM CAP peptide on Jul. 21, 2021, and then grown in planters in an alley. The second 1 μM CAP peptide treatment was performed on July 28.

| Substance | disease tolerance effect [1] | transformation of differentiated cells into stem cells ([2]; PLT1-GFP marker) | induction of gall-like structure ([2]; roots) | increase in expression of genes related to freezing tolerance and drought tolerance [3] [factor] | root extension on excess mannitol-containing medium vs control ([4]; 600 nM, 5 minutes immersion, high-osmotic pressure conditions) | root extension on excess sorbitol-containing medium vs control ([4]; 600 nM, overnight immersion, dry conditions) | growth on excess mannitol-containing medium, mean value ([4]; seeds immersed in 600 nM CAP peptide for 5 minutes, high-osmotic pressure conditions, FIG. 3 upper) | growth on excess sorbitol-containing medium, mean value ([4]; seeds immersed in 600 nM CAP peptide overnight, dry conditions, FIG. 3 lower) | increase in expression of genes related to disease resistance [5] [factor] | growth of bacteria after infection [6] | growth of the pathogen ([7]; 4 days after infection) | plant body growth vs water treatment ([7]; 13 days after infection) | seed yield vs water treatment ([7]; 13 days after pathogen infection) | freshness after pathogen treatment vs water treatment ([8]; 60 nM CAP peptide sprayed one day before inoculation) | inhibition of bacterial growth compared with water treatment ([8]; 60 nM CAP peptide, 2 days after pathogen inoculation) [times] | germination rate compared with gibberellin treatment [9] | transformation efficiency (Rorippa aquatica) | effect of promoting stem extension compared with CAP-untreated group [10] |
| --- | --- | --- | --- | --- | --- | --- | --- | --- | --- | --- | --- | --- | --- | --- | --- | --- | --- | --- |
| FTQIVW (consensus sequence of CAP) [CAP6 peptide] | a remarkable effect was obtained | – | – | – | – | – | – | – | – | – | – | – | – | – | – | – | – | – |
| TQVVWKSTTNIGVGILIVNGTV (partial peptide of CAP) [CAP peptide, synthetic peptide from the conserved region of insect CAP (cysteine-rich secretory protein, antigen 5, and pathogenesis-related 1)] | – | differentiated cells were transformed into stem cells | induced a gall-like structure | ≥ 2 | extended more | extended more | 11.69 (S.D.=1.55) | 7.71 (S.D.=1.39) | 2 to 3 | suppressed the growth of bacteria | significantly inhibited | grew much larger | yielded more seeds | freshness was maintained for a longer period of time | ≥ 1000 | much higher germination rate | high efficiency transformation | significantly confirmed |
